Data: PMC9775191, “A Subset Screen of the Compounds Australia Scaffold Library Identifies 7-Acylaminodibenzoxazepinones as Potent and Selective Hits for Anti-Giardia Drug Discovery” (Biomedicines, 2022)
Where two headings read alike, the source gives them in different places.

How the values were obtained:
[1] = tested on: G. duodenalis BRIS/91/HEPU/1279; assay: Primary Giardia screen at 10 µM (live-cell imaging, automated counting); format: cell-based, Giardia duodenalis; settings: for inhibition at 10 µM: Giardia duodenalis
Outline: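 Compound added to 10 μM final in medium with 0.2% DMSO, one well each; plates then held in sealed chambers at 3% O2, 5% CO2 in N2; growth imaged and counted automatically at 24 and 48 h; values normalised to vehicle wells minus media blank.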

BRIS/91/HEPU/1279 = assay: Combination studies (isobolograms); format: cell-based, Giardia duodenalis; settings: 24 h
Procedure: The activity of each combination was assessed against BRIS/91/HEPU/1279. A total of 14, 8-point dose–response assays were performed with each combination in triplicate on at least two occasions in 96-well microtiter plates (1.5x10^4 BRIS/91/HEPU/1279 trophozoites per well). Plates were incubated in chambers gassed with 3% O2, 5% CO2 in N2 at 37 °C for 24 h before parasite growth was assessed by imaging. Media and vehicle controls were included on each plate. […] Isoboles were fitted using the standard hyperbolic function defined by the parameter I as previously described, where Positive values of I indicate synergy, negative values indicate antagonism and addition occurs when I equals 0. The significance of the difference of I from zero was assessed with Student’s t test.

BRIS/87/HEPU/713 = assay: Giardia dose response assay, assemblage A; format: cell-based; settings: Giardia duodenalis
Procedure: (§1) In these assays, compounds were serially diluted (8–12-point doubling dilutions in technical duplicate) in DMSO control media, with all test wells inoculated with parasites (1.5 × 10^4 parasites for BRIS/91/HEPU/1279 and BRIS/91/HEPU/1279m1, or 3 × 10^3 parasites for BRIS/87/HEPU/713). Albendazole (positive control) plates were run with each experiment. All plates were sealed in culture chambers and gassed with 3% O2, 5% CO2 in N2 and incubated at 37 °C for 48 h, with parasites imaged and enumerated at 24 and 48 h. Growth inhibition was calculated as a percentage relative to vehicle controls minus any background as described above and IC50 values were determined using log-linear interpolation as previously described. […] Statistical comparison of IC50 values when required were performed using Student’s t-test.

[2] = In vivo tolerability assessment
Procedure: In brief, separate groups of three mice were administered single, increasing doses of compound via oral gavage to examine tolerability. […] After a week of observation, mice in each group were euthanized and samples collected for pathology assessment. The highest dose assessed was 50 mg/kg. To further assess the safety of SN00797640, this highest dose was also administered to a final group of three mice, daily for three days.

[3] = tested on: Neonatal foreskin fibroblast (NFF) cells; assay: Mammalian cell cytotoxicity assay (sulforhodamine B); format: cell-based, human; settings: Table S2; NFF vs 48 h Giardia IC50
Outline: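 Cytotoxicity against neonatal foreskin fibroblasts was read by sulforhodamine B staining, with media-only, untreated, DMSO-vehicle and chloroquine controls. Dose–response started at 100 µM. Selectivity index = NFF IC50 divided by G. duodenalis BRIS/91/HEPU/1279 IC50.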

BRIS/91/HEPU/1279m1 = assay: Giardia dose response assay, metronidazole resistant line; format: cell-based; settings: Giardia duodenalis
Procedure: as §1

[4] = tested on: Escherichia coli (ATCC 25922); assay: Anti-bacterial activity assay; format: cell-based
Outline: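 Compounds tested once at 50 µM in duplicate against mid-log cultures at 5 × 10^5 CFU/mL, incubated 18 h at 37 °C without shaking. Growth read by absorbance at 600 nm; percentage inhibition calculated relative to bacteria-only wells. Vancomycin (Gram-positive) and colistin (Gram-negative) served as plate controls.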

[5] = tested on: G. duodenalis BRIS/91/HEPU/1279; assay: Giardia dose response assay, assemblage B; format: cell-based, Giardia duodenalis; settings: for IC50: Giardia duodenalis
Outline: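 Assemblage B trophozoites (BRIS/91/HEPU/1279, 1.5 × 10^4 parasites/well) faced 8–12-point doubling dilutions in duplicate, incubated 48 h at 37 °C under 3% O2, 5% CO2 in N2. Parasites were imaged and counted at 24 and 48 h. Growth inhibition was taken versus vehicle controls minus background, with IC50 by log-linear interpolation.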

With `Cc1ccc(C(=O)Nc2ccc3c(c2)N(C)C(=O)c2ccccc2O3)cc1` [SN00797640] the “Average % Inhibition 48h” value ([1]; 48 h) was over 90%, the inhibition at 10 µM ([1]; 24 h, first singlicate assay, read-out: % Inhibition n=1 24h) was 97.5% and the inhibition at 10 µM ([1]; 24 h, re-assessment, read-out: % Inhibition n=2 24h) was 83.1%. The inhibition at 10 µM ([1]; 24 h, read-out: Average % Inhibition 24h) was 90.3%, the inhibition at 10 µM ([1]; 48 h, first singlicate assay, read-out: % Inhibition n=1 48h) was 96.3% and the inhibition at 10 µM ([1]; 48 h, re-assessment, read-out: % Inhibition n=2 48h) was 97.2%. For the same compound, the inhibition at 10 µM ([1]; 48 h, read-out: Average % Inhibition 48h) was 96.8%, the “interaction parameter I” value (BRIS/91/HEPU/1279; combined with albendazole, synergistic) was 4.7 and the “interaction parameter I” value (BRIS/91/HEPU/1279; combined with metronidazole, additive) was −0.3. The IC50 (BRIS/87/HEPU/713; 48 h, read-out: 48 h IC50) was 0.115 ± 0.03 µM, the IC50 (BRIS/87/HEPU/713; read-out: 24 h IC50, 24 h) was 0.164 ± 0.011 µM and the tolerability ([2]; oral gavage, up to 50 mg/kg daily for three consecutive days) was “well tolerated with no adverse reactions detected”. For the same compound, the “histological analysis of liver and kidney samples” value ([2]; test animals of tolerability study) was “no toxicity”, the “SI (48h Gd)” value [3] was over 55 and the IC50 (BRIS/91/HEPU/1279m1; 24 h, read-out: 24 h IC50) was 0.16 ± 0.027 µM. For the same compound, the IC50 (BRIS/91/HEPU/1279m1; 48 h, read-out: 48 h IC50) was 0.124 ± 0.003 µM, the “Bacterial Inhibition E. coli” value ([4]; 50 µM) was under 5% and the inhibition at 50 µM ([4]; Escherichia coli, ATCC25922, 50 µM, read-out: Bacterial Inhibition E. coli) was 3.64%. The “fold more potent than metronidazole” value ([5]; 48 h IC50) was over 10 fold, the IC50 ([5]; 24 h, read-out: G. duodenalis IC50 24h, Table S2, 24 h, ±SD, max 10 µM) was 0.38 ± 0.05 µM and the IC50 ([5]; 48 h, BRIS/91/HEPU/1279, 48 h, mean ± SD, read-out: IC50 Giardia (48 h)) was 0.18 µM. It also gave an IC50 ([5]; 48 h, BRIS/91/HEPU/1279, 48 h, read-out: 48 h IC50) of 0.181 µM.
